# Measurements published in ChEMBL document CHEMBL1201862, “PubChem BioAssay data set” (2004).
# Activity calls are given as the source filed them.
# Assays:
# Insulin-degrading enzyme [1] = target: T1, Insulin-degrading enzyme (Homo sapiens, UniProt P14735); test: activators of recombinant IDE enzyme, dose response, counter-screen for IDE activator project, biochemical, fluorescence polarization (AID 588681)
# HEK293 [2] = test: optical interference in Abeta FP readout, dose response, artefact control for IDE activator project, biochemical, fluorescence polarization (AID 588442); type: functional, cell-based; settings: Homo sapiens
# HEK293 [3] = test: HEK cell cytotoxicity by LDH release, dose response, cytotoxicity control for IDE activator project, fluorescence, HEK cells (AID 588440); type: functional, cell-based; settings: Homo sapiens;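 also: cytotoxicity by LDH release measuring loss of membrane integrity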
# Insulin-degrading enzyme [4] = target: T1, Insulin-degrading enzyme; test: activators of endogenous IDE in HEK cells, dose response, cell-based, fluorescence polarization (AID 588439); type: functional
# Protein RecA = target: T2, Protein RecA (Mycobacterium tuberculosis, UniProt P9WHJ3); test: Fluorescence Cell-Free Homogeneous Dose Retest to Identify Inhibitors of RecA-Intein Splicing Activity. [Related pubchem assays (depositor defined):AID2097, AID2223, AID489010, AID492950]; type: functional
# T2 sequence (P9WHJ3 whole entry): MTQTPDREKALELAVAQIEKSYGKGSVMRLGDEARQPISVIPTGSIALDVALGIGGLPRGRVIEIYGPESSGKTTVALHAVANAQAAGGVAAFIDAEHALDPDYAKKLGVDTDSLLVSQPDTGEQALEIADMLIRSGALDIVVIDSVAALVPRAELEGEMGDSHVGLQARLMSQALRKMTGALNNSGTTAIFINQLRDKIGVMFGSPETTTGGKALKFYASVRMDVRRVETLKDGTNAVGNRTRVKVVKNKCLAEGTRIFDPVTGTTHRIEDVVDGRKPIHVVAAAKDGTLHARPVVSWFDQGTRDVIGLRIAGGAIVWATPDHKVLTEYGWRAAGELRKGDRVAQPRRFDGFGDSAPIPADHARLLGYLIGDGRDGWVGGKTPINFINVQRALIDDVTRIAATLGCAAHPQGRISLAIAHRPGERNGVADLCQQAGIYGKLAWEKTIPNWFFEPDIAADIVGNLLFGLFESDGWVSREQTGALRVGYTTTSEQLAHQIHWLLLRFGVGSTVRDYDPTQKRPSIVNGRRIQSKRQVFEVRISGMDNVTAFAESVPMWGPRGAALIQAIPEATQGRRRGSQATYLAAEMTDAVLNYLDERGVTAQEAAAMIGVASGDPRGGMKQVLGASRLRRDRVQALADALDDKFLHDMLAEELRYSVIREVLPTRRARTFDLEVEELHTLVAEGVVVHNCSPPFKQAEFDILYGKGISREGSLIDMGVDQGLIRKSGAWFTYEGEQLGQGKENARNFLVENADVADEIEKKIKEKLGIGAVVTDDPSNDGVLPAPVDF
# [5] = target: T3, Replicative DNA helicase DnaB (Mycobacterium tuberculosis, UniProt P9WMR3); test: DnaB intein splicing inhibitors, dose response, biochemical, cell-free fluorescence (AID 449749); type: functional
# T3 sequence (P9WMR3 whole entry): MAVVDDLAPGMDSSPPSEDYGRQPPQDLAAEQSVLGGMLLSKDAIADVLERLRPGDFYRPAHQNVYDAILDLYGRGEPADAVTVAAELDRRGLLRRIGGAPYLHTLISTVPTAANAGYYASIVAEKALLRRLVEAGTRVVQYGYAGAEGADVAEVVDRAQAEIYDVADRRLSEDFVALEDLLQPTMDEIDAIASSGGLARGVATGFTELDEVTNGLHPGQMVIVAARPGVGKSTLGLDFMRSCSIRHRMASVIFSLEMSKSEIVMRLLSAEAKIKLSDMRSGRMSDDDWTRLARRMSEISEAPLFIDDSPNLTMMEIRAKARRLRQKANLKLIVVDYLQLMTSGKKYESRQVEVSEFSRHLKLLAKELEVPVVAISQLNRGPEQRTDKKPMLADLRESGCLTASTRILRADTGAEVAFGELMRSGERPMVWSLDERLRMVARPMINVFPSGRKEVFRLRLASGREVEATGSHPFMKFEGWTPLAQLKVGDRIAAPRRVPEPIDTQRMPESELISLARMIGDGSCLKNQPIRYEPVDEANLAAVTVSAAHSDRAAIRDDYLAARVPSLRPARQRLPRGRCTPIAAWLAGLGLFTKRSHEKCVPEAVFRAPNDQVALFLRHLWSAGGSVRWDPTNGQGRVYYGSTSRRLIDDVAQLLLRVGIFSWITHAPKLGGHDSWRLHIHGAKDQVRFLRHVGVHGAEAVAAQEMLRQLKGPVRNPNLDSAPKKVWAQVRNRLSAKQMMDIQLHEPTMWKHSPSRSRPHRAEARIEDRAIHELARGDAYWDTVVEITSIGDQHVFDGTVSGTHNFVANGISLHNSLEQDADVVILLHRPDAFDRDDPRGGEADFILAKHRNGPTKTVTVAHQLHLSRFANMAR
# [6] = target: Potassium voltage-gated channel subfamily KQT member 2 (Rattus norvegicus, UniProt O88943, W236L); test: KCNQ2 channel potentiators, dose response, mechanism study for KCNQ2 potentiator project, cell-based, automated electrophysiology (AID 2603); type: functional
# [7] = HepG2 cell cytotoxicity, dose response, cytotoxicity control for Shn3 inhibitor project, CellTiter-Glo, cherry-picked (AID 624134); type: functional, cell-based
# [8] = Shn3 3'UTR reporter inhibitors, dose response, cell-based, Clone20 osteoblasts, firefly luciferase, cherry-picked (AID 624132); type: functional;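 also: firefly luciferase luminescence from reporter carrying the Shn3 3'UTR in osteoblasts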
# Vero = Vero cell cytotoxicity, cytotoxicity control for flavivirus capping enzyme inhibitors (AID 588742); type: functional; settings: Chlorocebus sabaeus
# Genome polyprotein = Genome polyprotein (dengue virus type 2, UniProt P29990); test: Dengue-2 NS5 methyltransferase inhibitors, primary screen, biochemical, confirmation dose response (AID 588689); type: functional
# [9] = target: T4, Hepatocyte nuclear factor 4-alpha (Homo sapiens, UniProt P41235); type: functional, cell-based;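 also: biochemical luminescence-based dose-response counterscreen measuring inhibition of HNF4 dimerization, run alongside a screen for blockers of ABHD5–perilipin-5 interaction; split luciferase complementation of HNF4 fusion proteins in cell lysate measuring dimerization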
# T4 sequence (P41235 whole entry): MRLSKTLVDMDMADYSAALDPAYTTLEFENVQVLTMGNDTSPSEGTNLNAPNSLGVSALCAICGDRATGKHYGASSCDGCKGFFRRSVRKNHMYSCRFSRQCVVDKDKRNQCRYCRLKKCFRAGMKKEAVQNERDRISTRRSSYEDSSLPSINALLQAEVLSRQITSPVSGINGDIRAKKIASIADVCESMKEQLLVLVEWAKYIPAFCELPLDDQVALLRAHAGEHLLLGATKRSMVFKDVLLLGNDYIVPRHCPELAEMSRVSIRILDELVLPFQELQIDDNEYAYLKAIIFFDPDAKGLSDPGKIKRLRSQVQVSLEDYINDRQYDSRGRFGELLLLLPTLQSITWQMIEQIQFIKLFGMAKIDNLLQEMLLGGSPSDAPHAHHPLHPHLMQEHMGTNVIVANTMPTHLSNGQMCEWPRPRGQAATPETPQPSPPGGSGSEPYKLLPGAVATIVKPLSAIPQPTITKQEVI
# [10] = control 3'UTR Renilla luciferase suppression, dose response, counter-screen for Shn3 inhibitor project, cell-based, Clone20-Shn3RL, cherry-picked (AID 624133); type: functional
# Caspase-3 = target: T5, Caspase-3 (Homo sapiens, UniProt P42574); test: SAR Analysis of small molecule inhibitors of Sentrin-specific proteases (SENPs) using a Caspase-3 Selectivity assay. [Related pubchem assays (depositor defined):AID2540, AID2599, AID434973, AID489001]; type: functional
# T5 sequence (P42574 whole entry): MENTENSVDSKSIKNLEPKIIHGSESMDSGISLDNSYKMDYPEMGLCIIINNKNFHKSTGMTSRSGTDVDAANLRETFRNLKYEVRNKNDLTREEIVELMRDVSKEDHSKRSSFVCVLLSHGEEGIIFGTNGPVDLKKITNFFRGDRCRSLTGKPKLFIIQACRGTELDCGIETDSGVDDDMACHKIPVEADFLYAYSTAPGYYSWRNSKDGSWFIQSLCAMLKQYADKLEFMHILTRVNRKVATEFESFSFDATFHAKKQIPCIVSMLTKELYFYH
# [11] = target: T6, Sentrin-specific protease 6 (Homo sapiens, UniProt Q9GZR1); test: SAR Analysis of small molecule inhibitors of Sentrin-specific protease 6 (SENP6) using a Luminescent assay. [Related pubchem assays (depositor defined):AID2582, AID2599]; type: functional
# T6 sequence (Q9GZR1 whole entry): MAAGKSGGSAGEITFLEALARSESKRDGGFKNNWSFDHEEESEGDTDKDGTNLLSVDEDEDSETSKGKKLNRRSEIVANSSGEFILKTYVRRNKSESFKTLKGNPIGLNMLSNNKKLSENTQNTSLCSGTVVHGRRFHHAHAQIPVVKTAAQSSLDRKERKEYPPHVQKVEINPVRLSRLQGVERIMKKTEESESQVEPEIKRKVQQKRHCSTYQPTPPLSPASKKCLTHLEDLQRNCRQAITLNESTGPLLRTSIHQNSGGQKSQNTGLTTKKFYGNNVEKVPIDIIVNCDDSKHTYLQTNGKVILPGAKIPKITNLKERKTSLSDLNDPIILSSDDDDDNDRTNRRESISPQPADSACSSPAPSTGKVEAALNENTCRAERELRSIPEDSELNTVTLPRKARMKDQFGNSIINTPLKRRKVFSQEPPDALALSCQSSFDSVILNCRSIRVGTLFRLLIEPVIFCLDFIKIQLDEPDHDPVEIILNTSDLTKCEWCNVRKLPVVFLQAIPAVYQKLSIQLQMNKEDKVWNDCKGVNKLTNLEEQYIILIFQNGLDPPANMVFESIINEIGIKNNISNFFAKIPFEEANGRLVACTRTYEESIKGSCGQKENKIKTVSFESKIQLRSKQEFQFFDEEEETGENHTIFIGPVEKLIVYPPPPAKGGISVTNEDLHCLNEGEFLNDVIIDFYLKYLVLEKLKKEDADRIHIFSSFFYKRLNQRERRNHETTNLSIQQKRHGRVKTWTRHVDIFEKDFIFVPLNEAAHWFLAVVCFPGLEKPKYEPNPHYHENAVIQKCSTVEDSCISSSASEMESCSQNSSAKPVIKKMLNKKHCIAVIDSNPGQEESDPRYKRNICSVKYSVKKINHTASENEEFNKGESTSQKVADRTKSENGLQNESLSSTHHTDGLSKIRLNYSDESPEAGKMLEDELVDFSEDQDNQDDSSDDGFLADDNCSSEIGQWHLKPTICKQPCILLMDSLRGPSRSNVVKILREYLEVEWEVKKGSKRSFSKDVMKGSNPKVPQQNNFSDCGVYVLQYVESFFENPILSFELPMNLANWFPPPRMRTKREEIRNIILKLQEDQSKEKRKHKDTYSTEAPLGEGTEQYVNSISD
# [12] = target: T7, Sentrin-specific protease 8 (Homo sapiens, UniProt Q96LD8); test: SENP8 protease inhibitors, SAR follow-up, biochemical, luminescence (AID 504501); type: functional
# T7 sequence (Q96LD8 whole entry): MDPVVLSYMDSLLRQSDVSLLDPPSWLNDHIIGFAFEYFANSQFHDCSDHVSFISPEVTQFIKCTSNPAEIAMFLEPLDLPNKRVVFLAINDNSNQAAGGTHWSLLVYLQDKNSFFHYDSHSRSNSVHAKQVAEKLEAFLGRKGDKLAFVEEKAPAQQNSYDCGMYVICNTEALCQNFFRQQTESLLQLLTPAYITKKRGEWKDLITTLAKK
# [13] = target: T8, Sentrin-specific protease 7 (Homo sapiens, UniProt Q9BQF6); test: SENP7 protease inhibitors, SAR follow-up, biochemical, luminescence (AID 504497); type: functional
# T8 sequence (Q9BQF6 whole entry): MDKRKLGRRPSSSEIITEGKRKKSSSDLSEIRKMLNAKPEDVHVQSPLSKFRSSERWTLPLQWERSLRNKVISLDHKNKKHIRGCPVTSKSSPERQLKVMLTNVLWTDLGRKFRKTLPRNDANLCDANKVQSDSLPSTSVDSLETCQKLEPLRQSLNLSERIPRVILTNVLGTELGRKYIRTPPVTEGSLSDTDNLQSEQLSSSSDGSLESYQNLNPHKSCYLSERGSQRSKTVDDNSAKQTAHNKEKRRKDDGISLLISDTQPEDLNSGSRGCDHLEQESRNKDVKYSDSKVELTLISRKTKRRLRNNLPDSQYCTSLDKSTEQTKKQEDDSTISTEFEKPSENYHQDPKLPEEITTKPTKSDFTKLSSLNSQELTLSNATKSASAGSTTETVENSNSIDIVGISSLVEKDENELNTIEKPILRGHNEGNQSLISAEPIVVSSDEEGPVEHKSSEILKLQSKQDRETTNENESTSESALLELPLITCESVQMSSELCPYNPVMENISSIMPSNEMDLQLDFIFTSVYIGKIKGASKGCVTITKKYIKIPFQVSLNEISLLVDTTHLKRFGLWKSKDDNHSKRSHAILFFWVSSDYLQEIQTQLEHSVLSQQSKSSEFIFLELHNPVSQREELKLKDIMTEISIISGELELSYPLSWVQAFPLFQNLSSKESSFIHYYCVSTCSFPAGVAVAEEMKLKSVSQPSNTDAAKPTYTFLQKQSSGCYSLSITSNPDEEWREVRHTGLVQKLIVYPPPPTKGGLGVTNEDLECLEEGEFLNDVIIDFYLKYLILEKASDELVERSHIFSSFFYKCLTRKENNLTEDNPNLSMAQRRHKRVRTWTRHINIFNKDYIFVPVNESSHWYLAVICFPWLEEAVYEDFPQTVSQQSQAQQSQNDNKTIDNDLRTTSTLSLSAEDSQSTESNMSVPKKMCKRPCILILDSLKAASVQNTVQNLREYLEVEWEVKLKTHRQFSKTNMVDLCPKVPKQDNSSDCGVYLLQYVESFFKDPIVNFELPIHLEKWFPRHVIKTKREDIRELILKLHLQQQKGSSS
# T1 sequence (P14735 whole entry): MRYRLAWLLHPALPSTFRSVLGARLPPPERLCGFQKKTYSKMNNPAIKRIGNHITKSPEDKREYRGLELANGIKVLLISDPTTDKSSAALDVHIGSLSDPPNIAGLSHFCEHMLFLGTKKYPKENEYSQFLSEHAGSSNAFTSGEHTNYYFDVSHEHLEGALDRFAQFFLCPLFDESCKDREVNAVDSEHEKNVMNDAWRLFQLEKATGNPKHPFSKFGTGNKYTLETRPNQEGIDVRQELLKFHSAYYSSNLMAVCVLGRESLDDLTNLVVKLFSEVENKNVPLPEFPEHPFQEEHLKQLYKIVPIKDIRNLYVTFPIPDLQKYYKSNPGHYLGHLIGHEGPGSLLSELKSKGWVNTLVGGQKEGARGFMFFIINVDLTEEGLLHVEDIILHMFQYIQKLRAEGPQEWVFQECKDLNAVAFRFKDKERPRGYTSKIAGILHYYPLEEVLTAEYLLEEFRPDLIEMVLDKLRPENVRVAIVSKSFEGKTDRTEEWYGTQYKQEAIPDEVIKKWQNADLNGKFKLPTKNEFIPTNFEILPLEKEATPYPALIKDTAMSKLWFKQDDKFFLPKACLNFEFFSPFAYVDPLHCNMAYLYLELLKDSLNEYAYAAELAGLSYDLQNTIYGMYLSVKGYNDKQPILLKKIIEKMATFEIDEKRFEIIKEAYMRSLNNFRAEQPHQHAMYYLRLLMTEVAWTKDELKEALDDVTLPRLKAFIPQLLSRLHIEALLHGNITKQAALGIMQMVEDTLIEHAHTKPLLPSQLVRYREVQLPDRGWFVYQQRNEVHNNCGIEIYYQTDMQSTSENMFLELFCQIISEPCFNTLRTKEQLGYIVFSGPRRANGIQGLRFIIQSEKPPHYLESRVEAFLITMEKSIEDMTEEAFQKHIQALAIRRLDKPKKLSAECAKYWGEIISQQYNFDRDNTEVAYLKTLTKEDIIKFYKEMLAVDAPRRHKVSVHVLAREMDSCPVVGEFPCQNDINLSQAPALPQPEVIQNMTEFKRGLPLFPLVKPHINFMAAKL
# Chain of Genome polyprotein (P29990 2492-3391 limits assumed): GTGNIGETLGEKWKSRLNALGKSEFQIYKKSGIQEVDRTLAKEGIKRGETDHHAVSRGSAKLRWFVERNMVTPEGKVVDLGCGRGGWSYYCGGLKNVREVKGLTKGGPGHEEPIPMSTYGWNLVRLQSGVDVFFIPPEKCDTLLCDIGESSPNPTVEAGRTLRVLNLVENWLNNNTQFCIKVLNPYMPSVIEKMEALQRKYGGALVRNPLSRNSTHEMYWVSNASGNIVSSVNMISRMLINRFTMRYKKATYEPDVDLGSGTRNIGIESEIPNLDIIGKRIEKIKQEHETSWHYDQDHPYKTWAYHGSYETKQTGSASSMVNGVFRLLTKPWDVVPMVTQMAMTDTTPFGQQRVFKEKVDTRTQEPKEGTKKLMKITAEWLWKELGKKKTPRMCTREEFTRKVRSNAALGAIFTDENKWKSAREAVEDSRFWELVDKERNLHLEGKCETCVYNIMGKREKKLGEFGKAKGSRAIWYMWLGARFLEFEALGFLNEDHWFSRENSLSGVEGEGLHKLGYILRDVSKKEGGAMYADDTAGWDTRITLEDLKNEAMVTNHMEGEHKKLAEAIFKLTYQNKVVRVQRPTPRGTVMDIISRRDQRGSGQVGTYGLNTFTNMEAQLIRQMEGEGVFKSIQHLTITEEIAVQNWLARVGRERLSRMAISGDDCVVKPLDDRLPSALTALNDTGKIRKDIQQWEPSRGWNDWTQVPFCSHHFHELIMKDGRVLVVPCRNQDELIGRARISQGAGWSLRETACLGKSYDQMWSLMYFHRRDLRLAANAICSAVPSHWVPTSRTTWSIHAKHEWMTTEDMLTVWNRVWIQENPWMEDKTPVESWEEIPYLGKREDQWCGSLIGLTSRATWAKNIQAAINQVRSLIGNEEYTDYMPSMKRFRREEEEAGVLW
# Chain of Potassium voltage-gated channel subfamily KQT member 2 (O88943 whole entry W236L): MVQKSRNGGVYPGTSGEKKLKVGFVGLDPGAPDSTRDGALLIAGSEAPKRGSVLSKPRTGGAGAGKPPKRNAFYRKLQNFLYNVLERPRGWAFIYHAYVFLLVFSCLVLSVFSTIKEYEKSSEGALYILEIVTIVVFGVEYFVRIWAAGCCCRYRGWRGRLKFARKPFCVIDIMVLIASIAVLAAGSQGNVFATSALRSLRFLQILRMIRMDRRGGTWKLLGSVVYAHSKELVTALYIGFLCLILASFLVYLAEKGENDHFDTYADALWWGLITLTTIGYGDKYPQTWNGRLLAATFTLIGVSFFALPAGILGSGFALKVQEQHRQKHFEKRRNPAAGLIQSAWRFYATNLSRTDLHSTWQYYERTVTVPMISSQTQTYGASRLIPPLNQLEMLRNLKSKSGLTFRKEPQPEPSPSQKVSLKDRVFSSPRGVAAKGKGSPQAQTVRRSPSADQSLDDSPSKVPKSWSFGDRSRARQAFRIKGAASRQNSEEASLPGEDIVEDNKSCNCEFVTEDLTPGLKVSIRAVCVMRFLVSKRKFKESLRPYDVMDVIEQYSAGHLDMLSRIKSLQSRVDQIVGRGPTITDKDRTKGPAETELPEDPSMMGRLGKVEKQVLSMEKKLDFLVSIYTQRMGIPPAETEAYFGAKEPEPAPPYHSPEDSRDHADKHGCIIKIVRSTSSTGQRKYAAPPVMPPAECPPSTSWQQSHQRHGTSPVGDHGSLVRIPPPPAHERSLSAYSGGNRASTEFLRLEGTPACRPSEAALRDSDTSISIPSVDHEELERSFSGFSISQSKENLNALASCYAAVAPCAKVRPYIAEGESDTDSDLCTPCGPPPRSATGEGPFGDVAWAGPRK
structure (smiles),measurement,setting,value
CC(C)CCn1nnnc1CN1CCN(c2ccccc2)CC1,EC50,Insulin-degrading enzyme [1],29.8 µM (inactive)
same,EC50,HEK293 [2],> 55.9 µM (inactive)
same,IC50,HEK293 [3],> 89.1 µM (inactive)
same,EC50,Insulin-degrading enzyme [4],32.3 µM (inactive)
CCc1nnc(NC(=O)c2nc(S(=O)(=O)Cc3ccccc3)ncc2Cl)s1,EC50,Protein RecA,5.09 µM (active)
same,AC50,[5],18.5 µM (active)
same,EC50,[6],17.3 µM (active)
same,AC50,[7],> 70 µM (inactive)
same,AC50,[8],2.72 µM (active)
same,CC50,Vero,27.6 µM (active)
same,IC50,Genome polyprotein,> 100 µM (active)
same,IC50,[9],5.95 µM (active)
same,AC50,[10],11.1 µM (active)
CC1CC(C)CN(S(=O)(=O)c2ccc(C(=O)Nc3nc4ccc(C(C)C)cc4s3)cc2)C1 (configuration not stated),IC50,Caspase-3,> 99 µM (inactive)
same,IC50,[11],> 99 µM (inactive)
same,IC50,[12],> 99 µM (inactive)
same,IC50,[13],> 99 µM (inactive)
